Assay results taken from the NIST ThermoML archive (doi:10.1016/j.jct.2016.07.037).
± gives the expanded uncertainty stated by the source.

Tests used:
[1] = molar enthalpy of vaporization or sublimation; conditions: 298.15 K; Crystal; Static calorimetry
[2] = Molar enthalpy of transition or fusion; conditions: Crystal; DSC
[3] = Crystal; for vapor or sublimation pressure: Calculated from knudsen effusion weight loss; for Normal melting temperature: DTA
[4] = molar heat capacity at constant pressure; conditions: 298.15 K; 101.33 kPa; Crystal; Drop calorimetry

OCC(F)(F)C(F)(F)C(F)(F)C(F)(F)C(F)(F)C(F)(F)C(F)(F)C(F)(F)C(F)(F)C(F)(F)C(F)(F)C(F)(F)C(F)(F)F
molar enthalpy [1]: 30.2 ± 0.932 kcal/mol | Molar enthalpy of transition or fusion [2]: 9.08 ± 0.454 kcal/mol | vapor or sublimation pressure ([3]; 328.6 K): 0.00014 ± 2.1e-05 kPa | vapor or sublimation pressure ([3]; 330.6 K): 0.000172 ± 2.1e-05 kPa | vapor or sublimation pressure ([3]; 332.5 K): 0.000231 ± 2.2e-05 kPa | vapor or sublimation pressure ([3]; 334.5 K): 0.000302 ± 2.3e-05 kPa | vapor or sublimation pressure ([3]; 336.5 K): 0.000391 ± 2.4e-05 kPa | vapor or sublimation pressure ([3]; 338.4 K): 0.000502 ± 2.7e-05 kPa | vapor or sublimation pressure ([3]; 340.4 K): 0.000642 ± 3e-05 kPa | Normal melting temperature [3]: 139.2 ± 0.5 °C | molar heat capacity at constant pressure [4]: 725.3 ± 17 J/K/mol

OCC(F)(F)C(F)(F)C(F)(F)C(F)(F)C(F)(F)C(F)(F)C(F)(F)C(F)(F)C(F)(F)F [1H,1H-perfluoro-1-decanol]
molar heat capacity at constant pressure [4]: 563.9 ± 13 J/K/mol

OCC(F)(F)C(F)(F)C(F)(F)C(F)(F)C(F)(F)C(F)(F)C(F)(F)C(F)(F)C(F)(F)C(F)(F)C(F)(F)F [1H,1H-perfluoro-1-dodecanol]
molar enthalpy [1]: 26.4 ± 0.86 kcal/mol | Molar enthalpy of transition or fusion [2]: 5.88 ± 0.311 kcal/mol | vapor or sublimation pressure ([3]; 303.6 K): 6.95e-05 ± 2e-05 kPa | vapor or sublimation pressure ([3]; 306.1 K): 0.0001 ± 2e-05 kPa | vapor or sublimation pressure ([3]; 308.6 K): 0.000143 ± 2.1e-05 kPa | vapor or sublimation pressure ([3]; 311 K): 0.000196 ± 2.1e-05 kPa | vapor or sublimation pressure ([3]; 313.5 K): 0.000273 ± 2.2e-05 kPa | vapor or sublimation pressure ([3]; 316 K): 0.000376 ± 2.4e-05 kPa | vapor or sublimation pressure ([3]; 318.5 K): 0.000517 ± 2.7e-05 kPa | vapor or sublimation pressure ([3]; 321 K): 0.000727 ± 3.3e-05 kPa | vapor or sublimation pressure ([3]; 323.5 K): 0.001007 ± 7.8e-05 kPa | Normal melting temperature [3]: 114.2 ± 1.3 °C | molar heat capacity at constant pressure [4]: 645.2 ± 15 J/K/mol

OCC(F)(F)C(F)(F)C(F)(F)C(F)(F)C(F)(F)C(F)(F)C(F)(F)C(F)(F)C(F)(F)C(F)(F)F [1H,1H-perfluoroundecan-1-ol]
molar heat capacity at constant pressure [4]: 602.4 ± 14 J/K/mol

OCC(F)(F)C(F)(F)C(F)(F)C(F)(F)C(F)(F)C(F)(F)C(F)(F)C(F)(F)F [2,2,3,3,4,4,5,5,6,6,7,7,8,8,9,9,9-heptadecafluoro-1-nonanol]
molar heat capacity at constant pressure [4]: 515.9 ± 12 J/K/mol
